Where two headings read alike, the source gives them in different places. Positions of bridges follow the written chain, without caps; N, C: chain ends. Chains are numbered I, II in the order given.
How the values were obtained:
HIV-1 NL4-3 (36G)V38A = details: read-out: EC50, NL4-3 mutant (36G)V38A; T20-resistant strain; triplicate, mean ± SD
HIV-1IIIB = type: cell-based
HIV-1 NL4-3(D36G) = assay: Activity against T20-sensitive strain; type: cell-based; details: triplicate, mean ± SD, read-out: EC50, NL4-3 mutant D36G
93IN101 (C, R5) = type: cell-based, HIV-1
Experimental: (§1) HIV-1 infection assay. To measure the inhibitory activity of the peptides on infection of R5 primary HIV-1 isolates, US4/GS 007 (subtype B), 93IN101 (subtype C), and 92TH009 (subtype A/E), 50 µl of an inhibitor at graded concentration in triplicate was incubated with the same volume of a primary HIV-1 isolate at 100 TCIID50 at 37 °C for 30 min, followed by addition of 100 µl of CEMx174 5.25M7 cells (5×10^5/ml). After incubation at 37 °C overnight, the culture medium was replaced with fresh medium without inhibitor. On day 7 postinfection, the culture supernatants were collected for measuring p24 by ELISA, and the percent inhibition and EC50 values were calculated using Calcusyn

[1] = system: HIV-1 NL4-3 (36G)V38E/N42S; details: read-out: EC50, NL4-3 mutant (36G)V38E/N42S; T20-resistant strain; triplicate, mean ± SD
[2] = system: HIV-1 NL4-3 (36G)V38A/N42T; details: read-out: EC50, NL4-3 mutant (36G)V38A/N42T; T20-resistant strain; triplicate, mean ± SD
US4/GS 007 (B, R5) = assay: Infection by primary HIV-1 isolate, p24 ELISA; type: cell-based; details: CEMx174 5.25M7 cells, 100 TCID50, p24 ELISA day 7; triplicate, mean ± SD; read-out: EC50 for inhibiting US4/GS 007 (B, R5)
Experimental: as §1

92TH009 (A/E, R5) = assay: Infection by primary HIV-1 isolate, p24 ELISA; type: cell-based; details: CEMx174 5.25M7 cells, 100 TCID50, p24 ELISA day 7; triplicate, mean ± SD; read-out: EC50 for inhibiting 92TH009 (A/E, R5)
Experimental: as §1

HIV-1BaL = type: cell-based
Cytotoxicity, XTT assay = type: cell-based; details: human, MT-2 cells, 4 days at 37°C, triplicate, mean ± SD
[3] = system: HIV-1 Env-mediated cell–cell fusion; details: read-out: EC50 for inhibiting cell–cell fusion; HL2/3 and TZM-bl cells coincubated 6–8 h, 37°C, luciferase; triplicate, mean ± SD
Experimental: Cell-cell fusion assay. Cell-cell fusion assays were performed as described previously.1 HL2/3 cells, which stably
express HIV Gag, Env, Tat, Rev, and Nef proteins, as well as TZM-bl cells, which stably express large amounts of CD4
and CCR5, were obtained from the NIH AIDS Reference and Reagent Program (contributed by Drs. Barbara Felber and
George Pavlakis and Drs. John C. Kappes and Xiaoyun Wu, respectively). TZM-bl cells (2.5 × 10^4/well) and HL2/3 cells
(7.5 × 10^4/well) were coincubated in 96-well plates (Corning Costar) at 37°C in 5% CO2 in the presence of different
concentrations of inhibitors. After incubation for 6–8 h, the medium was aspirated, the cells were washed and lysed, and
luciferase activity was measured using the Luciferase Assay System (Promega, Madison, WI) on a SpectraMax M5 plate
reader (Molecular Devices, Sunnyvale, CA).

[4] = CD spectroscopy and CD thermal denaturation; type: physicochemical; details: 10 μM peptide in PBS pH 7.4
Excerpt: software as described above. 2
Circular dichroism (CD) spectroscopy.

proteinase K = proteinase K (Parengyodontium album, UniProt P06873); assay: Metabolic stability in proteinase K solution; type: in vitro ADME; details: 10 μg/mL, LC-MS/MS, compared with T20
Experimental: (§2) Tricine-sodium dodecyl sulfate-polyacrylamide gel electrophoresis (Tricine-SDS-PAGE). Polyacrylamide gels (12%) and a BayGene Mini Cell were used for Tricine-SDS-PAGE. The cathode buffer consisted of 0.1 M Tricine, 0.1 M Tris, and 1% SDS, and the anode buffer was 0.2 M Tris. After incubation at 37 °C for 0–24 h, the samples were mixed with Tris-SDS-glycine sample buffer (Invitrogen, Carlsbad, CA) at a ratio of 1:1 and then loaded onto the gels (20 μL/well). Gel electrophoresis was first carried out at a constant voltage of 60 V at room temperature for 1 h and then carried out at a constant voltage of 120 V at room temperature for 2 h. The gel was then stained with Bio-Rad Bio-Safe […]
(§3) Binding assays by size-exclusion chromatography. C34 was mixed with N-peptides (final concentration = 0.20 mM) at a molar ratio of 1:1 in PBS (pH 7.4) and incubated at 37 °C for 30 min. The peptide or peptide mixture (20 μL) was applied to a Phenomenex BioSep-SEC-s2000, 300 mm × 7.80 mm HPLC column equilibrated with PBS (pH 7.4) and eluted at 0.6 mL/min, and the fractions were monitored at 210 nm. Column pressure was 3.5 Mpa.
(§4) Qualification assay. Chromatographic analyses were performed using an ODS-C8 column (5 μm, 100 mm × 2.0mm ID) kept at ambient temperature. The mobile phase was composed of acetonitrile-water-formic acid in the ratio of 60:40:0.1 (v/v/v) at a flow rate of 0.3 mL/min. […]

[5] = Sedimentation velocity analysis (SVA); type: physicochemical; parameters: Sedimentation coefficient: unit not given here; details: 120 μM in PBS pH 7.4, 60,000 rpm, 20 °C
Experimental: Sedimentation velocity analysis (SVA). All measurements were performed on a ProteomelabTMXL-A/XL-I analytical ultracentrifuge (Beckman Coulter, Fullerton, CA, USA) at 20 °C, as described previously. In brief, three-channel cells were used with an An-60 Tirotor. Lyophilized N-peptides were resuspended in ddH2O (pH 7.0) at ~1 mg/mL. The individual proteins and their mixtures with an equimolar amount of C34 peptide were prepared in PBS and incubated at 37 °C for 30 min. All samples were prepared at a final concentration of 120 μM and were initially scanned at 3000 rpm for 10 min to identify the appropriate wavelength for data collection. Data were collected at 60,000 rpm at a wavelength […]
of 280 nm. […]

[6] = Metabolic stability in liver homogenate; type: in vitro ADME; details: SD rat, pooled from 3 rats, 4 mL Tris–HCl 50 mM pH 7.4 per g, 9,000 g supernatant, 10 μg/mL, 37°C, 0-120 min, LC-MS/MS, compared with T20
[7] = Metabolic stability in rat plasma; type: in vitro ADME; details: 10 μg/mL, LC-MS/MS, compared with T20
Experimental: as §2, §3, §4

[8] = Metabolic stability in kidney homogenate; type: in vitro ADME; details: SD rat, pooled from 3 rats, 4 mL Tris–HCl 50 mM pH 7.4 per g, 9,000 g supernatant, 10 μg/mL, 37°C, 0-120 min, LC-MS/MS, compared with T20
[9] = triplicate, mean ± SD, read-out: EC50 for inhibiting HIV-1IIIB infection
[10] = CEMx174 5.25M7 cells, 100 TCID50, p24 ELISA day 7, triplicate, mean ± SD, read-out: EC50 for inhibiting 93IN101 (C, R5)
[11] = triplicate, mean ± SD, read-out: EC50 for inhibiting HIV-1BaL infection

Chain of proteinase K (P06873 106-384): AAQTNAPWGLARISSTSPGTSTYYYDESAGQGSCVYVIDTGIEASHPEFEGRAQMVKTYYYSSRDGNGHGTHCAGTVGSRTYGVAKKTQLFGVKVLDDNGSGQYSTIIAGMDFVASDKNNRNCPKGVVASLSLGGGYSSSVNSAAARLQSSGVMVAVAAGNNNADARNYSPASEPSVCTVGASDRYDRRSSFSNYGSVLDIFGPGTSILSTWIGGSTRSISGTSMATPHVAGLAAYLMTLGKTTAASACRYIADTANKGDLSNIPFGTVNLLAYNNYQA

Q: For “I: Ac-SEIVKKINNIERAIEAQQHLLQLTVWGIKQLQARIL-NH2 / II: Ac-SEIVKKINNIERAIEAQQHLLQLTVWGIKQLQARIL-NH2 / III: Ac-SEIVKKINNIERAIEAQQHLLQLTVWGIKQLQARIL-NH2 (amide I:6-III:11, I:11-II:6, II:11-III:6) [(N36MEK1)3]”, which EC50 (HIV-1 NL4-3 (36G)V38A) is on record?
A: The EC50 was 126 ± 31 nM.

Q: What about the EC50 (HIV-1IIIB; [9]) of the same substance?
A: Its EC50 is 11.2 ± 4.9 nM.

Q: What about the EC50 (HIV-1 NL4-3(D36G)) of the same substance?
A: Its EC50 is 106 ± 16 nM.

Q: What about the EC50 (93IN101 (C, R5); [10]) of the same substance?
A: Its EC50 is 20.1 ± 5.6 nM.

Q: What about the EC50 [1] of the same substance?
A: Its EC50 is 22.2 ± 2.8 nM.

Q: And the EC50 [2]?
A: Its EC50 is 71 ± 6.1 nM.

Q: What about the EC50 (US4/GS 007 (B, R5)) of the same substance?
A: The EC50 was 29.2 ± 11.2 nM.

Q: And the EC50 (92TH009 (A/E, R5))?
A: The EC50 was 14.5 ± 4.1 nM.

Q: What about the EC50 (HIV-1BaL; [11]) of the same substance?
A: The EC50 was 74.3 ± 6.5 nM.

Q: And the CC50 at 96 h (Cytotoxicity, XTT assay)?
A: Its CC50 at 96 h is 17300 ± 1600 nM.

Q: And the EC50 [3]?
A: Its EC50 is 59 ± 8.7 nM.

Q: What does the source list for Enfuvirtide?
A: EC50 (HIV-1 NL4-3 (36G)V38A): 620 ± 103 nM; EC50 (HIV-1IIIB): 57.8 ± 3.2 nM; EC50 (93IN101 (C, R5)): 22.1 ± 0.9 nM; EC50 [1]: > 2000 nM; EC50 [2]: 539 ± 33 nM; EC50 (US4/GS 007 (B, R5)): 20.4 ± 2.9 nM; EC50 (92TH009 (A/E, R5)): 19 ± 0.5 nM; EC50 (HIV-1BaL): 34.1 ± 9.4 nM; EC50 [3]: 1.2 ± 0.01 nM

Q: What does the source list for “I: Ac-SEIVKKINNIERAIEAQQKLLQLTVWGIKQLQARIL-NH2 / II: Ac-SEIVKKINNIERAIEAQQKLLQLTVWGIKQLQARIL-NH2 / III: Ac-SEIVKKINNIERAIEAQQKLLQLTVWGIKQLQARIL-NH2 (amide I:6-III:11, I:11-II:6, II:11-III:6) [(N36MEK2)3]”?
A: EC50 (HIV-1 NL4-3 (36G)V38A): 21.7 ± 2.3 nM; EC50 (HIV-1IIIB; [9]): 4.7 ± 0.6 nM; EC50 (HIV-1 NL4-3(D36G)): 19.4 ± 1.9 nM; EC50 (93IN101 (C, R5); [10]): 5.2 ± 0.9 nM; EC50 [1]: 4.9 ± 2.9 nM; EC50 [2]: 8.1 ± 1.2 nM; EC50 (US4/GS 007 (B, R5)): 7.1 ± 2.5 nM; EC50 (92TH009 (A/E, R5)): 1.5 ± 0.6 nM; EC50 (HIV-1BaL; [11]): 20.4 ± 2.5 nM; CC50 at 96 h (Cytotoxicity, XTT assay): 18900 ± 2600 nM; EC50 [3]: 27.1 ± 2.5 nM

Q: Which results are given for “I: Ac-SGIVQKINNIERAIEAQQHLLQLTVWGIKQLQARIL-NH2 / II: Ac-SGIVQKINNIERAIEAQQHLLQLTVWGIKQLQARIL-NH2 / III: Ac-SGIVQKINNIERAIEAQQHLLQLTVWGIKQLQARIL-NH2 (amide I:6-III:11, I:11-II:6, II:11-III:6) [(N36M)3]”?
A: Tm (thermal unfolding transition) ([4]; CD at 222 nm, 15 to 90 °C at 2 °C/min): > 90 °C; Helicity ([4]; CD, mean residue ellipticity at 222 nm): 82%; EC50 (HIV-1 NL4-3 (36G)V38A): 14.5 ± 1.5 nM; Metabolic stability in proteinase K solution (proteinase K): dramatically increased in vitro metabolic stability over T20; Sedimentation coefficient ([5]; 280 nm, SEDFIT): 1.39; Observed molecular mass (SVA) ([5]; oligomeric state): 12.5 kDa; EC50 (HIV-1IIIB; [9]): 2.67 ± 0.1 nM; EC50 (HIV-1 NL4-3(D36G)): 20.2 ± 2.7 nM; Metabolic stability in liver homogenate [6]: dramatically increased in vitro metabolic stability over T20; EC50 (93IN101 (C, R5); [10]): 5.9 ± 2 nM; EC50 [1]: 6 ± 3.7 nM; EC50 [2]: 10.2 ± 1.3 nM; EC50 (US4/GS 007 (B, R5)): 9.4 ± 1.2 nM; EC50 (92TH009 (A/E, R5)): 1.5 ± 0.1 nM; EC50 (HIV-1BaL; [11]): 8.6 ± 3.1 nM; Metabolic stability in rat plasma [7]: dramatically increased in vitro metabolic stability over T20; Metabolic stability in kidney homogenate [8]: dramatically increased in vitro metabolic stability over T20; CC50 at 96 h (Cytotoxicity, XTT assay): > 50000 nM; EC50 [3]: 4 ± 0.4 nM
